Some results are limits rather than exact numbers.

Results on eight compounds are retold here after patent US8273738B2, “Imidazole derivatives” (priority 2006, dated 2012).

Experiment [1] concerns rats with chronic constriction nerve injury. The experiment is described as follows: Analgesic effect in rats with chronic constriction nerve injury (von Frey filament). The format is in vivo, rat. The note with it: oral, dose of 50 mg/kg or less, one hour after administration, von Frey filaments. The text has this: Rats with chronic constriction nerve injury were produced by partially modifying the method of Mosconi and Kruger et al. (Pain, vol. 64, pp. 37-57 (1996))
Male Crl:CD(SD) rats were used for the experiments. Under pentobarbital anesthesia, the sciatic nerve of the left hind limb of the rat was exfoliated, and the exfoliated region was wrapped with a polyethylene tube (trade name: Intramedic, size: PE-60, manufactured by Becton Dickinson and Company) of 2 mm in length. On days 14 to 21 after the surgery, the rats were placed in an acrylic connected cage with a wire mesh floor (900 mm (length)×210 mm (depth)×140 mm (height)) consisting of 4 cages connected in a row and allowed to acclimate to the environment for at least 20 minutes, and then, the pain was evaluated.
The von Frey filament (trade name: touch test sensory evaluator, Model number: model 58011, manufactured by Muromachi Kikai) was used to evaluate pain, and the results were calculated as a pain threshold. That is, by using a von Frey filament of different stimulus intensity, stimulation was given to the plantar surface of the injured side of rats with chronic constriction nerve injury, and the stimulus intensity to cause paw withdrawal response was obtained. Then, the 50% pain threshold (Paw withdrawal threshold) (g) was calculated by the up down method of Dixon [Annual Review of Pharmacology and Toxicology, vol. 20, pp. 441-462 (1980)].
In the evaluation of the test compound, rats with 50% pain threshold of less than 4 g were used, and the test compound was dissolved in a 0.5% aqueous methyl cellulose solution and orally administered at a dose of 5 mL/kg. One hour after the administration, the pain threshold was measured using von Frey filaments.

For experiment [2], the target named is T1, CB2 receptor (Rattus norvegicus, UniProt Q9QZN9).
T1 construct: from tissue; host or cells: rat spleen membrane specimen
T1 sequence (Q9QZN9 1-360): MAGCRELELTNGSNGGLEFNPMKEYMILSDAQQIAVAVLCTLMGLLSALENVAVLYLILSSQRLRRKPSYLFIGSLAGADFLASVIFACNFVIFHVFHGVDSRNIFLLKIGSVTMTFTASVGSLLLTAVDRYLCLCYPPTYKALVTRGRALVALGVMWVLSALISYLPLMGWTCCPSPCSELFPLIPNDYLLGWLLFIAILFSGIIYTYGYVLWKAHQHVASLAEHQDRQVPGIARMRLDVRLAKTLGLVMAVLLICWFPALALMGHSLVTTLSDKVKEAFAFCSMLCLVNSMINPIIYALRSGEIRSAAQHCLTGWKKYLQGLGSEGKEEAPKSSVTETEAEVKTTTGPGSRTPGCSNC
The experiment is described as follows: Cannabinoid CB2 receptor-binding activity ([3H]CP55940 binding experiment), rat spleen membrane specimen. As to the method: A test was carried out according to the method of Hillard et al. [The Journal of Pharmacology and Experimental Therapeutics, vol. 289, p. 1427 (1999)]. A rat forebrain membrane specimen and a rat spleen membrane specimen were prepared and used in a binding experiment for a CB1 receptor and a binding experiment for a CB2 receptor, respectively. The membrane specimen (forebrain: final concentration of 0.5 mg of protein/mL, spleen: final concentration of 2 mg of protein/mL) was incubated together with a test compound and [^3H]CP55940 (manufactured by PerkinElmer) ((−)-cis-3-[2-hydroxy-[3,5-^3H]-4-(1,1-dimethylheptyl)phenyl]-trans-4-(3-hydroxypropyl)cyclohexanol)) (final concentration: 0.5 nmol/L) in an assay buffer (50 mmol/L Tris-HCl buffer (pH 7.4), 1 mmol/L EDTA and 3 mmol/L MgCl2) containing 0.1% bovine serum albumin at 25° C. for 1 hour, and the resulting mixture was filtered using a glass filter GF/C (manufactured by Whatman) treated with 1% polyethyleneimine. After the glass filter was washed with the assay buffer containing 0.2% bovine serum albumin, the radioactivity on the glass filter was measured using a liquid scintillation counter (TRI-CARB 2700TR, manufactured by Packard). The binding amount in the presence of 10 μmol/L […] (manufactured by Tocris) ((R)-(+)-[2,3-dihydro-5-methyl-3-(4-morpholinylmethyl)pyrrolo[1,2,3-de]-1,4-benzoxazin-6-yl]-1-naphthalenylmethanone) was considered to be a non-specific binding amount, and a difference between the total binding amount and the non-specific binding amount was considered to be a specific binding amount. The 50% inhibitory concentration (IC50 value) of the test compound against the specific binding was obtained, and the Ki value of the test substance was calculated from the 50% inhibitory concentration and the Kd value of the [^3H]CP55940 binding.

The target in experiment [3] is T2, human CB2 receptor (Homo sapiens, UniProt P34972).
T2 construct: expressed in transfected cells
T2 sequence (P34972 whole entry): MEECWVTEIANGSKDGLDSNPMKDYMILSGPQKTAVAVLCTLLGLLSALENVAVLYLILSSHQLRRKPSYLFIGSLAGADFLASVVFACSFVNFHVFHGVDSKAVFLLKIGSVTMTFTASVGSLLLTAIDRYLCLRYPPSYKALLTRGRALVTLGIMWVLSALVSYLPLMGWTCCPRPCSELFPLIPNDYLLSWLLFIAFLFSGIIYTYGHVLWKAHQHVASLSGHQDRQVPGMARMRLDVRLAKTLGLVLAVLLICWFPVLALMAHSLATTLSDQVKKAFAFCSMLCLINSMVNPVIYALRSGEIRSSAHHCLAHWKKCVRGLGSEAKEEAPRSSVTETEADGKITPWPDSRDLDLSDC
The experiment is described as follows: GTPγS binding experiment via human CB2 receptor (membrane fraction of CHO-K1 cells). The format is biochemical. The note with it: for Emax: read-out: Emax value (maximum effect of CP55940 as 100%). On the procedure:
A test was carried out according to the method of Hillard et al. [The Journal of Pharmacology and Experimental Therapeutics, vol. 289, p. 1427 (1999)]. As for a membrane specimen, a membrane fraction was prepared from CHO-K1 cells in which a human CB2 receptor [Nature, vol. 365, pp. 61-65 (1993)] was stably expressed and used. The membrane specimen (final concentration: 40 μg of protein/mL) was incubated together with a test compound and [^35S]GTPγS (manufactured by PerkinElmer) (final concentration: 0.05 nmol/L) in an assay buffer (50 mmol/L Tris-HCl buffer (pH 7.4), 100 mmol/L NaCl, 1 mmol/L EDTA, 3 mmol/L MgCl2, and 0.1% bovine serum albumin) containing 20 μmol/L guanosine 5′-diphosphate (GDP) at 30° C. for 1 hour, and the resulting mixture was filtered using a glass filter GF/B (manufactured by Whatman). After the glass filter was washed with the assay buffer, the radioactivity on the glass filter was measured using a liquid scintillation counter (TRI-CARB 2700TR, manufactured by Packard). The binding amount in the presence of 10 μmol/L GTPγS was considered to be a non-specific binding amount, and a difference between the total binding amount and the non-specific binding amount was considered to be a specific binding amount. The ratio of increase in the specific binding amount in the presence of the test compound to the specific binding amount in the absence of the test compound was considered to be an agonistic activity of the test compound. The concentration of the test compound that produces 50% of the maximum effect (EC50 value) was calculated by performing a nonlinear regression analysis using the concentration-response data. The percentage of the maximum effect of the test compound (Emax value) was calculated by considering the maximum effect of CP55940 (manufactured by Tocris) measured at the same time as 100%.
For orientation: GTPγS is a poorly hydrolysed GTP analogue; its binding reports G protein activation.

Usually Ki stands for the dissociation constant of the complex between target and ligand, obtained from inhibition or displacement. A low value points to tighter binding. For orientation: EC50 means the concentration needed to bring the measured effect to its halfway point. High values mean lower potency in that assay, low ones higher potency in that assay. As usually defined, the Emax is the maximal effect, on the per cent scale that the assay sets. With `CCCN(C)C(=O)c1cncc(-c2cn(CC3CCOCC3)c(C(C)(C)C)n2)n1` [Compound 144, 6-[2-tert-Butyl-1-(tetrahydropyran-4-ylmethyl)-1H-imidazol-4-yl]-N-methyl-N-propylpyrazine-2-carboxamide], the “50% pain threshold (paw withdrawal threshold)” value (from here on “50% pain threshold”) in experiment [1] was “significantly increased the pain threshold”. This compound also registered a Ki in experiment [2] of less than 1 µM. In experiment [3], the EC50 was less than 1 µM and the maximal effect (Emax) is more than 30%.
For `CCN(C)C(=O)c1cncc(-c2cn(CC3CCOCC3)c(C(C)(C)C)n2)n1` [Compound 146, 6-[2-tert-Butyl-1-(tetrahydropyran-4-ylmethyl)-1H-imidazol-4-yl]-N-ethyl-N-methylpyrazine-2-carboxamide], the “50% pain threshold” value in experiment [1] is listed as “significantly increased the pain threshold”. Further, the Ki in experiment [2] was less than 1 µM. Besides, in experiment [3], the EC50 was less than 1 µM and the Emax is more than 30%.
Take `CN(C)C(=O)c1cncc(-c2cn(CC3CCOCC3)c(C(C)(C)C)n2)n1` [Compound 153, 6-[2-tert-Butyl-1-(tetrahydropyran-4-ylmethyl)-1H-imidazol-4-yl]-N,N-dimethylpyrazine-2-carboxamide]: the “50% pain threshold” value in experiment [1] is given as “significantly increased the pain threshold”. Besides, the Ki in experiment [2] was less than 1 µM. Besides, in experiment [3], the EC50 is less than 1 µM and the Emax was more than 30%.
`CCN(C)C(=O)c1cncc(-c2cn(CC3(F)CCOCC3)c(C(C)(C)C)n2)n1` [Compound 185, 6-[2-tert-Butyl-1-(4-fluorotetrahydropyran-4-ylmethyl)-1H-imidazol-4-yl]-N-ethyl-N-methylpyrazine-2-carboxamide]: the “50% pain threshold” value in experiment [1] is recorded as “significantly increased the pain threshold”. In addition, in experiment [2], the Ki is less than 1 µM. In experiment [3], the EC50 is less than 1 µM and the Emax was more than 30%.
`CN(C)C(=O)c1cncc(-c2cn(CC3(F)CCOCC3)c(C(C)(C)C)n2)n1` [Compound 186, 6-[2-tert-Butyl-1-(4-fluorotetrahydropyran-4-ylmethyl)-1H-imidazol-4-yl]-N,N-dimethylpyrazine-2-carboxamide]: the “50% pain threshold” value in experiment [1] is “significantly increased the pain threshold”. The Ki in experiment [2] was less than 1 µM. Besides, in experiment [3], the EC50 is less than 1 µM and the Emax was more than 30%.
`CN(CC(F)(F)F)C(=O)c1cc(-c2cn(CC3CCOCC3)c(C(C)(C)C)n2)on1` [Compound 204, 5-[2-tert-Butyl-1-(tetrahydropyran-4-ylmethyl)-1H-imidazol-4-yl]-N-methyl-N-(2,2,2-trifluoroethyl)isoxazole-3-carboxamide]: the “50% pain threshold” value in experiment [1] is listed as “significantly increased the pain threshold”. For the same compound, the Ki in experiment [2] is less than 1 µM. In experiment [3], the EC50 is less than 1 µM and the maximal effect (Emax) is more than 30%.
Regarding `CN(C(=O)c1cncc(-c2cn(CC3CCOCC3)c(C(C)(C)C)n2)n1)C1CC1` [Compound 205, 6-[2-tert-Butyl-1-(tetrahydropyran-4-ylmethyl)-1H-imidazol-4-yl]-N-cyclopropyl-N-methylpyrazine-2-carboxamide], in experiment [1], the “50% pain threshold” value was “significantly increased the pain threshold”. Moreover, the Ki in experiment [2] is less than 1 µM. Also, in experiment [3], the EC50 is less than 1 µM and the Emax was more than 30%.
Take `CN(CC1CC1)C(=O)c1cncc(-c2cn(CC3CCOCC3)c(C(C)(C)C)n2)n1` [Compound 206, 6-[2-tert-Butyl-1-(tetrahydropyran-4-ylmethyl)-1H-imidazol-4-yl]-N-cyclopropylmethyl-N-methylpyrazine-2-carboxamide]: the “50% pain threshold” value in experiment [1] is “significantly increased the pain threshold”. In experiment [2], this compound registered a Ki of less than 1 µM. Also, in experiment [3], the EC50 was less than 1 µM and the Emax is more than 30%.
